Molecular target: human PDE1B enzyme (Homo sapiens (Human), UniProt Q01064)
Experiment: IMAP TR-FRET PDE1B enzymatic assay
Format: biochemical
Settings: negative log of half-maximal molar inhibitory concentration, 200 nM FAM-cAMP, values given as bins; for IC50: read-out: PDE1b (pIC50) (converted)
How it was run: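 Full-length GST-tagged human PDE1B (250 pg/well) in IMAP BSA buffer with 10 U/ml calmodulin and 2.5 mM CaCl2; compound pre-incubated 5 min at room temperature, then 200 nM (final) FAM-cAMP for 30 min. IMAP binding reagent/Tb added, 1 h; TR-FRET 520/490 ratio read. IC50 from sigmoidal dose-response fit.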

For `Cc1oc2ncnc(NC3(C)CC3)c2c1C(=O)N1CCC(c2nccc(C3CC3)n2)CC1` [Example 368, 5-[4-(4-Cyclopropylpyrimidin-2-yl)piperidine-1-carbonyl]-6-methyl-N-(1-methylcyclopropyl)furo[2,3-d]pyrimidin-4-amine], the “PDE1b (pIC50)” value was >8.

`CCCc1ccnc(C2CCN(C(=O)c3c(C)oc4ncnc(NC5(C)CC5)c34)CC2)n1` [Example 369, 6-Methyl-N-(1-methylcyclopropyl)-5-[4-(4-propylpyrimidin-2-yl)piperidine-1-carbonyl]furo[2,3-d]pyrimidin-4-amine] was tested, and the “PDE1b (pIC50)” value was >8.

With `COc1cnc(C2CCN(C(=O)c3c(C)oc4ncnc(NC5(C)CC5)c34)CC2)nc1` [Example 370, 5-[4-(5-Methoxypyrimidin-2-yl)piperidine-1-carbonyl]-6-methyl-N-(1-methylcyclopropyl)furo[2,3-d]pyrimidin-4-amine] the “PDE1b (pIC50)” value was >8.

`COc1ccc(CC2(NC(=O)c3c(C)oc4ncnc(NC5(C)CC5)c34)CC2)cc1` [Example 371, N-{1-[(4-Methoxyphenyl)methyl]cyclopropyl}-6-methyl-4-[(1-methylcyclopropyl)amino]furo[2,3-d]pyrimidine-5-carboxamide] was tested, and the IC50 was 10 to 100 nM.

`Cc1oc2ncnc(NC3(C)CC3)c2c1C(=O)N1CCC(c2cccc(Br)n2)C1` (centres unmarked) [Example 372, 5-[3-(6-Bromopyridin-2-yl)pyrrolidine-1-carbonyl]-6-methyl-N-(1-methylcyclopropyl)furo[2,3-d]pyrimidin-4-amine] was tested, and the “PDE1b (pIC50)” value was >8.

For `Cc1oc2ncnc(NC3(C)CC3)c2c1C(=O)N1CCC(c2ccc(Br)cn2)C1` (centres unmarked) [Example 373, 5-[3-(5-Bromopyridin-2-yl)pyrrolidine-1-carbonyl]-6-methyl-N-(1-methylcyclopropyl)furo[2,3-d]pyrimidin-4-amine], the “PDE1b (pIC50)” value was >8.

With `Cc1oc2ncnc(NC3(C)CC3)c2c1C(=O)NC(C)(C)CF` [Example 374, N-(1-Fluoro-2-methylpropan-2-yl)-6-methyl-4-[(1-methylcyclopropyl)amino]furo[2,3-d]pyrimidine-5-carboxamide] the IC50 was 10 to 100 nM.

Work on `Cc1oc2ncnc(NC3(C)CC3)c2c1C(=O)N1CCCC2(C1)C(=O)Nc1ccccc12` (centres unmarked) [Example 375, 1′-{6-Methyl-4-[(1-methylcyclopropyl)amino]furo[2,3-d]pyrimidine-5-carbonyl}-1,2-dihydrospiro[indole-3,3′-piperidine]-2-one] yielded an IC50 of 100 to 1000 nM.

`Cc1oc2ncnc(NC3(C)CC3)c2c1C(=O)N1CCCC2(C1)C(=O)N(C)c1ccccc12` (centres unmarked) [Example 376, 1-Methyl-1′-{6-methyl-4-[(1-methylcyclopropyl)amino]furo[2,3-d]pyrimidine-5-carbonyl}-1,2-dihydrospiro[indole-3,3′-piperidine]-2-one] showed an IC50 of 100 to 1000 nM.

`Cc1oc2ncnc(NC3(C)CC3)c2c1C(=O)N1CC(C#N)C2(C1)C(=O)Nc1ccccc12` (centres unmarked) [Example 377, 1′-{6-Methyl-4-[(1-methylcyclopropyl)amino]furo[2,3-d]pyrimidine-5-carbonyl}-2-oxo-1,2-dihydrospiro[indole-3,3′-pyrrolidine]-4′-carbonitrile] gave an IC50 of 10 to 100 nM.

With `Cc1oc2ncnc(NC3(C)CC3)c2c1C(=O)N1CCOC2(CCc3ccccc32)C1` (centres unmarked) [Example 378, 5-({2,3-Dihydrospiro[indene-1,2′-morpholine]-4′-yl}carbonyl)-6-methyl-N-(1-methylcyclopropyl)furo[2,3-d]pyrimidin-4-amine] the IC50 was 100 to 1000 nM.

`Cc1oc2ncnc(NC3(C)CC3)c2c1C(=O)N1CCCC2(C1)OCc1ccccc12` (centres unmarked) [Example 379, 6-Methyl-N-(1-methylcyclopropyl)-5-({3H-spiro[2-benzofuran-1,3′-piperidine]-1′-yl}carbonyl)furo[2,3-d]pyrimidin-4-amine] was tested, and the IC50 was 100 to 1000 nM.

Molecule `Cc1oc2ncnc(NC3(C)CC3)c2c1C(=O)N1CCC2(C1)OCc1ccccc12` (centres unmarked) [Example 380, 6-Methyl-N-(1-methylcyclopropyl)-5-(f{3H-spiro[2-benzofuran-1,3′-pyrrolidine]-1′-yl}carbonyl)furo[2,3-d]pyrimidin-4-amine] has an IC50 of 10 to 100 nM.

For `Cc1oc2ncnc(NC3(C)CC3)c2c1C(=O)N1CCN(c2cncnc2)CC1` [Example 381, 6-Methyl-N-(1-methylcyclopropyl)-5-[4-(pyrimidin-5-yl)piperazine-1-carbonyl]furo[2,3-d]pyrimidin-4-amine], the IC50 was 10 to 100 nM.

For `Cc1oc2ncnc(NC3(C)CC3)c2c1C(=O)N1CCC(c2ccc(C(N)=O)cc2)CC1` [Example 382, 4-(1-{6-Methyl-4-[(1-methylcyclopropyl)amino]furo[2,3-d]pyrimidine-5-carbonyl}piperidin-4-yl)benzamide], the “PDE1b (pIC50)” value was >8.

`Cc1ccc(C2CCN(C(=O)c3c(C)oc4ncnc(NC5(C)CC5)c34)CC2)cn1` [Example 383, 6-Methyl-N-(1-methylcyclopropyl)-5-[4-(6-methylpyridin-3-yl)piperidine-1-carbonyl]furo[2,3-d]pyrimidin-4-amine] gave an IC50 of 10 to 100 nM.

For `Cc1ccc(C2CCN(C(=O)c3c(C)oc4ncnc(NC5(C)CC5)c34)CC2)cc1` [Example 384, 6-Methyl-N-(1-methylcyclopropyl)-5-[4-(4-methylphenyl)piperidine-1-carbonyl]furo[2,3-d]pyrimidin-4-amine], the “PDE1b (pIC50)” value was >8.

With `Cc1oc2ncnc(NC3(C)CC3)c2c1C(=O)N1CCC(c2ccc(C#N)cc2)CC1` [Example 385, 4-(1-{6-Methyl-4-[(1-methylcyclopropyl)amino]furo[2,3-d]pyrimidine-5-carbonyl}piperidin-4-yl)benzonitrile] the “PDE1b (pIC50)” value was >8.

`Cc1oc2ncnc(NC3(C)CC3)c2c1C(=O)N1CCC2(CC1)OC(=O)Nc1ccc(F)cc12` [Example 386, 6-Fluoro-1′-{6-methyl-4-[(1-methylcyclopropyl)amino]furo[2,3-d]pyrimidine-5-carbonyl}-1,2-dihydrospiro[3,1-benzoxazine-4,4′-piperidine]-2-one] gave an IC50 of 10 to 100 nM.

`Cc1oc2ncnc(NC3(C)CC3)c2c1C(=O)N1CCC2(C=Cc3ccccc32)CC1` [Example 387, 6-Methyl-N-(1-methylcyclopropyl)-5-({spiro[indene-1,4′-piperidine]-1′-yl}carbonyl)furo[2,3-d]pyrimidin-4-amine] was tested, and the “PDE1b (pIC50)” value was >8.

With `Cc1oc2ncnc(NC3(C)CC3)c2c1C(=O)N1CCC2(CC1)SCc1ccccc12` [Example 388, 6-Methyl-N-(1-methylcyclopropyl)-5-(f{3H-spiro[2-benzothiophene-1,4′-piperidine]-1′-yl}carbonyl)furo[2,3-d]pyrimidin-4-amine] the “PDE1b (pIC50)” value was >8.

In the case of `Cc1oc2ncnc(NC3(C)CC3)c2c1C(=O)N1CCC(c2cccc(F)c2)C1` (centres unmarked) [Example 389, 5-[3-(3-Fluorophenyl)pyrrolidine-1-carbonyl]-6-methyl-N-(1-methylcyclopropyl)furo[2,3-d]pyrimidin-4-amine], the “PDE1b (pIC50)” value is reported as >8.

`Cc1ccnc(C2CCN(C(=O)c3c(C)oc4ncnc(NC5(C)CC5)c34)CC2)n1` [Example 390, 6-Methyl-N-(1-methylcyclopropyl)-5-[4-(4-methylpyrimidin-2-yl)piperidine-1-carbonyl]furo[2,3-d]pyrimidin-4-amine] was tested, and the “PDE1b (pIC50)” value was >8.

Work on `Cc1cnc(C2CCN(C(=O)c3c(C)oc4ncnc(NC5(C)CC5)c34)CC2)nc1C` [Example 391, 5-[4-(4,5-Dimethylpyrimidin-2-yl)piperidine-1-carbonyl]-6-methyl-N-(1-methylcyclopropyl)furo[2,3-d]pyrimidin-4-amine] yielded an IC50 of 10 to 100 nM.

Work on `Cc1oc2ncnc(NC3(C)CC3)c2c1C(=O)N1CCC2(C1)C(=O)Nc1ccccc12` (centres unmarked) [Example 392, 1′-{6-Methyl-4-[(1-methylcyclopropyl)amino]furo[2,3-d]pyrimidine-5-carbonyl}-1,2-dihydrospiro[indole-3,3′-pyrrolidine]-2-one] yielded an IC50 of 10 to 100 nM.

In the case of `Cc1cnc(C2CCN(C(=O)c3c(C)oc4ncnc(NC5(C)CC5)c34)CC2)cn1` [Example 393, 6-Methyl-N-(1-methylcyclopropyl)-5-[4-(5-methylpyrazin-2-yl)piperidine-1-carbonyl]furo[2,3-d]pyrimidin-4-amine], the IC50 is reported as 10 to 100 nM.

In the case of `COc1ncc(C2CCN(C(=O)c3c(C)oc4ncnc(NC5(C)CC5)c34)CC2)cn1` [Example 394, 5-[4-(2-Methoxypyrimidin-5-yl)piperidine-1-carbonyl]-6-methyl-N-(1-methylcyclopropyl)furo[2,3-d]pyrimidin-4-amine], the IC50 is reported as 10 to 100 nM.

With `Cc1cccc(C2CCN(C(=O)c3c(C)oc4ncnc(NC5(C)CC5)c34)C2)c1` (centres unmarked) [Example 395, 6-Methyl-N-(1-methylcyclopropyl)-5-[3-(3-methylphenyl)pyrrolidine-1-carbonyl]furo[2,3-d]pyrimidin-4-amine] the “PDE1b (pIC50)” value was >8.

With `Cc1oc2ncnc(NC3(C)CC3)c2c1C(=O)N1CCC(c2cccc(C(F)(F)F)c2)C1` (centres unmarked) [Example 396, 6-Methyl-N-(1-methylcyclopropyl)-5-{3-[3-(trifluoromethyl)phenyl]pyrrolidine-1-carbonyl}furo[2,3-d]pyrimidin-4-amine] the “PDE1b (pIC50)” value was >8.

For `Cc1cc(C)cc(C2CCN(C(=O)c3c(C)oc4ncnc(NC5(C)CC5)c34)C2)c1` (centres unmarked) [Example 397, 5-[3-(3,5-Dimethylphenyl)pyrrolidine-1-carbonyl]-6-methyl-N-(1-methylcyclopropyl)furo[2,3-d]pyrimidin-4-amine], the “PDE1b (pIC50)” value was >8.

`Cc1oc2ncnc(NC3(C)CC3)c2c1C(=O)N1CCC(Oc2cccc(F)c2)C1` (centres unmarked) [Example 398, 5-[3-(3-Fluorophenoxy)pyrrolidine-1-carbonyl]-6-methyl-N-(1-methylcyclopropyl)furo[2,3-d]pyrimidin-4-amine] was tested, and the “PDE1b (pIC50)” value was >8.

Molecule `Cc1oc2ncnc(NC3(C)CC3)c2c1C(=O)N1CCC(Oc2ccc(F)cc2)C1` (centres unmarked) [Example 399, 5-[3-(4-Fluorophenoxy)pyrrolidine-1-carbonyl]-6-methyl-N-(1-methylcyclopropyl)furo[2,3-d]pyrimidin-4-amine] has an IC50 of 10 to 100 nM.

Source: patent US20250145633A1, “SUBSTITUTED FURANOPYRIMIDINE COMPOUNDS AS PDE1 INHIBITORS” (Dart NeuroScience, LLC, priority 2017, published 2025)
